Reference: BigSolDB 2.1

FC(F)(F)c1cccnc1Cl
solubility (mole fraction)
Details | 263.15 K | 268.15 K | 273.15 K | 278.15 K | 283.15 K | 288.15 K | 293.15 K | 298.15 K | 303.15 K
in ethanol | 0.0807 | 0.112 | 0.141 | 0.186 | 0.262 | 0.363 | 0.476 | 0.621 | 0.831
in ethyl acetate | 0.306 | 0.35 | 0.399 | 0.455 | 0.508 | 0.583 | 0.652 | 0.739 | 0.824
in n-butanol | 0.0947 | 0.118 | 0.14 | 0.183 | 0.229 | 0.284 | 0.345 | 0.421 | 0.51
